Results published in a melting point compilation (Tetko et al.; mined from patent text by program, amines drawn as free bases though some values may be those of a salt).

First: Cc1cc(Br)c2c(c1)C(=O)C(=O)N2CCN(C(C)C)C(C)C
Second: Cc1cc(C)c(-n2ccc3c(N)nn(C)c(=O)c32)c(C)c1
The melting point of the first is lower: 94 to 97 °C for the first, 254 to 256 °C for the second.

Compared with `CC(C)CNC1NC(=O)N(c2ccccc2C(=O)O)C(=O)N1`, `O=C1N[C@H](CCl)[C@@H]1N1C(=O)c2ccccc2C1=O` (relative stereo) is lower in melting point: greater than 300 °C for the first, 172 °C for the second.

First: Cc1nnc(-c2cnc3occ(-c4ccccc4Cl)c3c2)o1
Second: CCc1cc2c(s1)-n1c(C)nnc1C(CC(=O)Nc1ccccc1)N=C2c1ccc(Cl)cc1 (configuration not stated)
The melting point of the first is lower: 141 to 142 °C for the first, 238 to 239 °C for the second.

First: O=C(COc1cc(=O)oc2ccccc12)c1ccccc1
Second: O=C1CCC(C(=O)OC(C(=O)c2ccccc2)c2ccccc2)N1 (configuration not stated)
The melting point of the first is higher: 183 to 184 °C for the first, 123 to 131 °C for the second.

First: Oc1cccc(-c2nc(-c3cccnc3)no2)c1
Second: CC(=NOC(C)C)c1ccc2c(c1)ncn2-c1cccc(-c2cccnc2)c1
The melting point of the first is higher: greater than 200 °C for the first, 77 to 80 °C for the second.

First: N#CCCCCCc1nc(-c2ccc(Cl)cc2)c(-c2ccc(Cl)cc2)o1
Second: CC(O)c1cc(-c2ccc(Cl)cc2)no1 (configuration not stated)
The melting point of the first is lower: 108 °C for the first, 141 to 143 °C for the second.

Compared with `CCc1cnc(CSc2cnc(NC(=O)c3ccccc3)s2)o1`, `O=C(c1ccccc1)c1cncc(Br)c1` is lower in melting point: 122 to 123 °C for the first, 66 to 68 °C for the second.

First: COc1cccc2c1nc(C(F)F)n2-c1nc(NC2CCN(C(=O)OC(C)(C)C)CC2)c(N)c(N2CCOCC2)n1
Second: O=C1CCCN1CC1CCN(c2nc(C(F)(F)F)ncc2OCc2ccccc2)CC1
The melting point of the first is higher: 223 to 225 °C for the first, 155 to 157 °C for the second.

First: Oc1ccc(Cc2cnc3c(-c4cc(-c5ccccc5)cs4)cnn3c2O)cc1
Second: Cc1cc2c(-c3ccccc3)nc(N3CCN(CC(O)c4ccc(F)cc4)CC3)nc2s1 (configuration not stated)
The melting point of the first is higher: 287 to 293 °C for the first, 180 to 182 °C for the second.

First: Cc1ccc(S(=O)(=O)OC[C@H](O)c2ccc(OCc3ccccc3)cc2)cc1
Second: COc1ccc(S(=O)(=O)C(CC(=O)NO)Cc2ccc(Oc3ccccc3)cc2)cc1 (configuration not stated)
The melting point of the first is higher: 91 to 92 °C for the first, 65 to 70 °C for the second.

Compared with `COc1cccc2c(=O)c(C(N)=O)c(N)oc12`, `NC(=O)c1cc(N)c(Oc2ccccc2)c(S(N)(=O)=O)c1` is lower in melting point: 302 °C for the first, 291 to 292 °C for the second.

First: CC(C)=C(C(=O)OCc1ccccc1)N1C(=O)C(Br)(Br)C1Br (configuration not stated)
Second: CCCC[C@H](NC(=O)[C@@H](NC(=O)OCc1ccccc1)C(C)C)C(=O)CSCc1ccco1
The melting point of the first is lower: 68 to 70 °C for the first, 115 to 116 °C for the second.

First: Cc1c(C)c2c(c(C)c1NC(=O)c1cccs1)C(c1ccc(C(C)C)cc1)C(C)(C)O2 (configuration not stated)
Second: CN1C(=O)C(=O)C(c2ccc(Cl)cc2)Sc2ccccc21 (configuration not stated)
The melting point of the first is higher: 222 to 224 °C for the first, 124 to 126 °C for the second.

First: O=C(O)Cc1c(C(=O)c2ccc(-c3ccco3)cc2)[nH]c2cc(Cl)ccc12
Second: O=c1c(CO)cc(-c2ccc3occc3c2)nn1Cc1ccc(F)cc1
The melting point of the first is higher: 230 to 232 °C for the first, 158 to 160 °C for the second.

First: COc1ccc2c(ccc3nc(C(=O)O)cn32)c1
Second: O=C(O)c1cc2c3ccccc3[nH]c(=S)n2n1
The melting point of the first is lower: 265 to 266 °C for the first, 272 to 273 °C for the second.

First: COC(=O)c1ccc(CC(C)NCC(O)c2ccc(O)c(O)c2)cc1 (configuration not stated)
Second: CN(C)c1ccc(O)c(CNCCc2ccc(N=C(N)c3cccs3)cc2)c1
The melting point of the first is lower: 169 °C for the first, 182 to 183 °C for the second.

First: Cc1cccc(Sc2ccc3c(c2)CCC2N(C)C(=O)CCC32C)c1 (single isomer, unassigned; (+))
Second: COc1ccc(N2N=C3c4cc(Cl)ccc4SCCC3CC2=O)cc1 (configuration not stated)
The melting point of the first is lower: 103 to 104 °C for the first, 159 to 161 °C for the second.

Compared with `Cc1c(NC(=O)c2ccc(-c3ccc(F)cc3)cc2)ccc2cc(CN3C(C)CCCC3C)cnc12` (configuration not stated), `O=C(Nc1ccc2cccnc2c1)c1cc2cc(F)ccc2n1Cc1cccc(F)c1` is higher in melting point: 167 to 168 °C for the first, 222 to 223 °C for the second.

First: CC(=O)Nc1c(C#N)c(Cl)c(C#N)n1C
Second: CCOC(=O)C(C#N)=C(C)Nc1ccnc(-c2ccncc2)n1
The melting point of the first is lower: 180 to 182 °C for the first, 203 to 205 °C for the second.

First: O=c1c2ccccc2sc2ccc(SC(F)(F)F)cc12
Second: CC(C)(C)OC(=O)c1cccc(-c2nc(=O)c3ccccc3s2)n1
The melting point of the first is lower: 126 to 127 °C for the first, 185 to 186 °C for the second.

Compared with `CCCCC/C(=C\C=C\C(=O)O)c1ccc(OC)c(OC)c1`, `CCCCCOc1cc2c(cc1/C=C/c1ccc(C(=O)O)cc1)C(C)(C)CCC2(C)C` is higher in melting point: 98 to 99.5 °C for the first, 148 to 149 °C for the second.

First: CC(=O)NCC1CN(c2ccc(N3CCC(C(C#N)CO)CC3)c(F)c2)C(=O)O1 (configuration not stated)
Second: CCNCC1CCN(c2c(F)cc3c(=O)c(C(=O)O)cn(C(C)C)c3c2F)C1 (configuration not stated)
The melting point of the first is lower: 136 to 138 °C for the first, 230 to 231 °C for the second.

First: CCN(CC)CC=CC(=O)Nc1cc2c(Nc3ccc(F)c(Cl)c3)ncnc2cc1OC1CCC1
Second: CCCc1nc(C)c2c(Sc3ccc(NC(C)=O)cc3)nc(-c3ccccc3OCC)nn12
The melting point of the first is lower: 111 °C for the first, 226 to 228 °C for the second.

Compared with `Oc1ccc(C=Cc2ccncc2)cc1`, `Nc1nc2ccccc2n1-c1ccc(I)cc1` is lower in melting point: 272 to 275 °C for the first, 212 to 214 °C for the second.

First: CC(C)(C)OC(=O)COc1ccc([N+](=O)[O-])cc1F
Second: COC(=O)c1cccc(-c2ccccc2[N+](=O)[O-])c1
The melting point of the first is lower: 62 to 64 °C for the first, 88 to 90 °C for the second.

Compared with `CC(C)NC(=O)OCC(=O)c1ccc(C2CCCCC2)cc1`, `CC(C)COC1OC(CO)C(O)C(O)C1(O)N(C(=O)N(CCCl)N=O)C1CCCCC1` (configuration not stated) is lower in melting point: 111 to 112 °C for the first, 87 to 89 °C for the second.

First: Cc1cc(C(=O)NC2=NCCC2(c2ccccc2)c2ccccc2)[nH]n1
Second: Cc1c(-c2ccccc2)n[nH]c1-c1ccccc1
The melting point of the first is lower: 213 to 215 °C for the first, 225 to 226 °C for the second.

First: COCc1cc(Cl)cc2c1OC(C(F)(F)F)C(C(=O)O)=C2 (configuration not stated)
Second: CCON=C(CC)C1=C(O)CC(c2ccc(Sc3ncc(C(F)(F)F)cc3F)cc2)CC1=O (configuration not stated)
The melting point of the first is higher: 167 to 168 °C for the first, 91 to 92 °C for the second.

First: N#Cc1ccc2ccc(=O)n(CCN3CCC(N)CC3)c2c1
Second: Cc1cccc(CCOc2ccc(C#N)cc2)n1
The melting point of the first is higher: 138 °C for the first, 66 to 67 °C for the second.

First: CSc1ncccc1NC(=O)CCCCCSc1nc2ccccc2s1
Second: O=C(CCc1ccccc1)Oc1n[nH]c(=O)c2nc3cc(Cl)ccc3c(O)c12
The melting point of the first is lower: 118 to 119 °C for the first, greater than 300 °C for the second.

First: Cn1cc(C(=O)NCc2ccc(Cl)cc2)c(=O)c2cc(/C=C/CO)ccc21
Second: OC1CCCc2nc3ccccc3c(NCc3ccc(F)cc3)c21 (configuration not stated)
The melting point of the first is lower: 103 to 106 °C for the first, 170 °C for the second.

Compared with `CC(C)OC(=O)Cn1c(=O)n(C)c(=O)n(-c2cc(N=c3sc(=O)n4n3CCC=C4)c(F)cc2Cl)c1=O`, `CCOC(=O)c1c(OCN2C(=O)c3c(C(C)C)cc(OC)cc3S2(=O)=O)nc2ncccn2c1=O` is higher in melting point: 99 to 111 °C for the first, 189 to 191 °C for the second.

First: Cc1cn(-c2ccc3nnc4c(C)nc(CC(C)C)n4c3c2)c(CC(C)C)n1
Second: CC(C)C(=O)NCCCC1COCc2nc3c(N)nc4ccccc4c3n21 (configuration not stated)
The melting point of the first is lower: 134 to 136 °C for the first, 207 to 208 °C for the second.

First: CCCCNC(=O)C(O[Si](C)(C)C(C)(C)C)c1ccccc1O (configuration not stated)
Second: CCC(C(=O)N(C)C)n1cc(Cl)c(-c2ccccc2)n1 (configuration not stated)
The melting point of the first is lower: 72 to 74 °C for the first, 94 to 96.5 °C for the second.

First: COC(=O)c1csc(C)c1NS(=O)(=O)NC(=O)Nc1nc(OC)cc(OC)n1
Second: C=CCNC(=O)Nc1nc2nc(NCCCN3CCN(C)CC3)ncc2cc1-c1c(Cl)cccc1Cl
The melting point of the first is higher: 174 °C for the first, 104 to 108 °C for the second.

Compared with `Cc1ccsc1C(Cc1ccccc1N)N(C)C=O` (configuration not stated), `CC(C)N(Cc1ccccc1)CC(O)COc1cccc2[nH]cc(C=O)c12` (configuration not stated) is lower in melting point: 111 to 112 °C for the first, 107 to 109 °C for the second.

First: N#Cc1ccc2c(c1)C[C@H](NS(=O)(=O)c1ccccc1)CN2C(=O)c1ccccc1
Second: COc1ccc(NS(=O)(=O)N2CCn3c(c(C(N)=O)c(Cl)c3-c3ccccc3)C2)cc1
The melting point of the first is higher: 174 to 175 °C for the first, 152 to 154 °C for the second.

First: O=C(O)c1cc(COc2ccccc2)cc(Cn2cc(C3c4ccccc4C=Cc4ccccc43)c(=S)[nH]c2=O)c1
Second: CCNC(=O)c1ccc2oc(C(=O)C(Cc3ccccc3)NC(=O)Cn3c(-c4ccc(F)cc4)ncc(NC(=O)OCc4ccccc4)c3=O)nc2c1 (configuration not stated)
The melting point of the first is lower: 160 to 165 °C for the first, 256 to 261 °C for the second.

First: COc1nc2ccc(Br)cc2cc1C(Br)c1ccccc1 (configuration not stated)
Second: O=C(NCc1ccn(-c2cc3nc(C(=O)O)c(=O)[nH]c3cc2C(F)(F)F)c1)Nc1ccccc1
The melting point of the first is lower: 85 to 86 °C for the first, greater than 300 °C for the second.

First: CN(C)c1ccc(CN2C(=O)C3(COc4cc5c(cc43)OCCO5)c3ccccc32)cn1 (configuration not stated)
Second: Cc1ccc(S(=O)(=O)OCC2COc3ccc4nocc4c3O2)cc1 (configuration not stated)
The melting point of the first is lower: 93 to 95 °C for the first, 109 to 110 °C for the second.

First: COCc1ncc(OC)c(=O)[nH]1
Second: COC(=O)C1(CCCCl)Sc2cc(OC)ccc2OCC1=O (configuration not stated)
The melting point of the first is lower: 61 °C for the first, 64 to 65 °C for the second.

Compared with `C=CCCCCCCCCNC(=O)N(C)O`, `COC(=O)C1=C(C)NC(C)=C(C(=O)OCCCCCCCCBr)C1c1cccc([N+](=O)[O-])c1` (configuration not stated) is higher in melting point: 58 to 59 °C for the first, 115 °C for the second.

First: Oc1ccc(CNCc2cccc(C(F)(F)F)c2)c2cccnc12
Second: CCOC(=O)c1cn(C2CC2)c2c(F)c(F)c(F)c(NCc3ccccc3)c2c1=O
The melting point of the first is lower: 127 to 129 °C for the first, 134 to 135 °C for the second.

Compared with `CN1CCn2c1nc(N1CCc3ccccc3CC1)c(C#N)c2=O`, `O=c1[nH]c2ccc(Cl)cc2c(=O)n1CCCCN1CC=C(c2ccccc2)CC1` is higher in melting point: 174 to 177 °C for the first, 214 to 222 °C for the second.

First: CC(C)CC1(C(CC(C)Sc2cccs2)C(=O)NO)CCN(CCc2ccccc2)C1=O (configuration not stated)
Second: CN1CCCC1=NC(=S)Nc1ccccc1
The melting point of the first is lower: 104 to 105 °C for the first, 142 to 144 °C for the second.

First: CCOCC(C)Oc1ccc(COc2cnn(C(C)(C)C)c(=O)c2Cl)cc1 (configuration not stated)
Second: CC=CCn1c(C)c(C)c2cnnc(OCc3cccnc3)c21
The melting point of the first is lower: 72.3 to 73.1 °C for the first, 80 to 81 °C for the second.

First: CCOC(=O)c1cnn2c1nc(N)c1cnc3c(cnn3CC)c12
Second: CCOC(=O)c1nc(C)oc1C(=O)NC(C)(C)C
The melting point of the first is higher: 331 to 332 °C for the first, 152 to 155 °C for the second.

Compared with `CC(C)C(=O)O[C@H]1[C@H](C)OC(=O)[C@@H](NC(=O)OC(C)(C)C)COC(=O)[C@@H]1CI`, `CCCCCCCCCCCCOC(=O)c1cc(C(C)(C)C)c(OC(=O)c2cc(C(C)(C)C)c(O)c(C(C)(C)C)c2)c(C(C)(C)C)c1` is lower in melting point: 168 to 171 °C for the first, 53 to 56 °C for the second.

`CCCCOC1(c2nc(-c3ccc(F)cc3)c(-c3ccncc3)[nH]2)CCN(C)CC1` gave a melting point of 177 °C.
